According to patent US11730731B2 (INVENTAGE LAB INC., priority 2021, dated 2023):

What was measured:
[1] = system: MAPKs (ERK, JNK, p38); test: Western blotting of MAPKs activity in LPS-treated Raw 264.7 cells; assay type: cell-based, mouse
Experimental: (§1) Western blotting was performed in the same manner as in Example 6.3. The first antibody used at this time is an antibody against p-ERK, ERK, p-JNK, JNK, p-p38, p38 and calnexin (Cell signaling, CA, USA), and the secondary antibody is anti-mouse or anti-rabbit HRP-binding secondary antibody.
Western blotting was performed in the same manner as in Example 7.4.

[2] = system: p65 NF-κB; test: Western blotting of NF-κB activity in LPS-treated SW982 cells; assay type: cell-based, human
Experimental: (§2) 1× Cell lysis buffer (Cell signaling, CA, USA) was mixed with protease and a phosphatase inhibitor and added to SW982 cells. After extracting the protein from the cells, the concentration was measured, and the same amount of protein was developed on an SDS-polyacrylamide gel, and transferred to an ECL nitrocellulose membrane (Amersham Pharmacia Biotech, Inc., Piscataway, N.J., USA) and blocked with nonfat dried milk for 1 hour. Thereafter, the reaction was performed with the first antibody (p65 NF-κB, phospho p65 NF-κB or calnexin; Cell signaling, CA, USA), while shaking at 4° C. for 24 hours. Then, after shaking and washing 3 times for 10 minutes with PBST buffer, the secondary antibody was incubated with anti-mouse or anti-rabbit HRP-conjugated secondary antibody for 1 hour at room temperature, and reacted with the protein band on the membrane using Supersignal west pico ECL solution (Thermo Fisher Scientific Inc.). The results were visualized with the Bio-Rad Gel Documentation system (Bio-Rad Laboratories, Hercules, Calif., USA), and the results were shown in FIG. 26.
as §2, with “phospho p65 NF-κB, p-ERK, ERK, p-JNK, JNK, p-p38, p38 or calnexin;” for “phospho p65 NF-κB or calnexin;”, “Scientific Inc.). […]” for “Scientific Inc.). The results were visualized with the Bio-Rad Gel Documentation system (Bio-Rad Laboratories, Hercules, Calif., USA), and the results were shown in FIG. 26.”

[3] = system: p65 NF-κB; test: Western blotting of NF-κB activity in LPS-treated Raw 264.7 cells; assay type: cell-based, mouse
[4] = system: MAPKs (ERK, JNK, p38); test: Western blotting of MAPKs activity in LPS-treated SW982 cells; assay type: cell-based, human
Experimental: as §1
1× Cell lysis buffer (Cell signaling, CA, USA) was mixed with protease and a phosphatase inhibitor and added to SW982 cells. After extracting the protein from the cells, the concentration was measured, and the same amount of protein was developed on an SDS-polyacrylamide gel, and transferred to an ECL nitrocellulose membrane (Amersham Pharmacia Biotech, Inc., Piscataway, N.J., USA) and blocked with nonfat dried milk for 1 hour. Thereafter, the reaction was performed with the first antibody (p65 NF-κB, phospho p65 NF-κB, p-ERK, ERK, p-JNK, JNK, p-p38, p38 or calnexin; Cell signaling, CA, USA), while shaking at 4° C. for 24 hours. Then, after shaking and washing 3 times for 10 minutes with PBST buffer, the secondary antibody was incubated with anti-mouse or anti-rabbit HRP-conjugated secondary antibody for 1 hour at room temperature, and reacted with the protein band on the membrane using Supersignal west pico ECL solution (Thermo Fisher Scientific Inc.). The results were visualized with the Bio-Rad Gel Documentation system (Bio-Rad Laboratories, Hercules, Calif., USA), and the results are shown in FIG. 35.

[5] = LPS 1 ug/ml, 0.5, 1, 10, 100 uM, 30 minutes
[6] = LPS 1 ug/ml, 0.5, 1, 10, 100 uM, 30 minutes, naltrexone effect at 1 uM

O=C1CC[C@@]2(O)[C@H]3Cc4ccc(O)c5c4[C@@]2(CCN3CC2CC2)[C@H]1O5 [Naltrexone, 17-(cyclopropylmethyl)-4,5α-epoxy-3,14-dihydroxymorphinan-6-one]
phosphorylation of MAPKs (ERK1/2, JNK, p38) [1, 5]: no inhibitory effect
phosphorylation of MAPKs increased by LPS ([1]; naltrexone 100, 200, 500, or 1000 ug/ml, Western blotting): not inhibited
phosphorylation of p65 NF-κB increased by LPS ([2]; 200 ug/ml of naltrexone, Western blotting): inhibited
phosphorylation of p65 NF-κB increased by LPS [2, 6]: inhibited
p65 NF-κB phosphorylation increased by LPS [3, 5]: inhibited
phosphorylation of p65 NF-κB increased by LPS ([3]; from a concentration of 500 ug/ml of naltrexone (100, 200, 500, 1000 ug/ml tested), Western blotting): inhibits the activity of NF-κB
phosphorylation of MAPK increased by LPS ([4]; 200 or 500 ug/ml of naltrexone, Western blotting): decreased
phosphorylation of MAPKs (ERK1/2, JNK, p38) increased by LPS [4, 6]: inhibited
